Experiments:
[1] = test system: BALB/c T cells responding to C57/BL6 DC; experiment: Mixed lymphocyte reaction, proliferation of responding allogeneic T cells; type: cell-based, mice; settings: 3 day MLR; lipiodol-transfected C57/BL6 DC with naive BALB/c splenocytes; FIG. 9
Protocol: C57/BL6 DC after transfection were irradiated (3,000 rad) and seeded in triplicate at various concentrations in a flat-bottom 96-well plate (Coming) for use as stimulator cells. Splenic T cells from BALB/c mice were isolated by gradient centrifugation over Ficoll-Paque (Amersham Pharmacia Biotech, Quebec) and T cell nylon wool column purification, and added as responders (5×10^5 cells/well). The mixed lymphocytes were cultured at 37° C. for 72 h in 200 μl of RPMI 1640 supplemented with 10% FCS, 100 U/ml of penicillin, and 100 μg/ml of streptomycin and pulsed with 1 μCi/well of ^3H-labelled thymidine (Amersham Pharmacia Biotech) for the last 16 h of culture. Cells were harvested onto glass fiber filters, and the radioactivity incorporated was quatitated using a Wallac Betaplate liquid scintillation counter (Beckman, Fullerton, Calif.). Results were expressed as the mean counts per min of triplicate cultures±SEM. In some experiments anti-IL-10 (JES5 2A5, Pharmingen) or isotype control antibody were added for the duration of the MLR at a concentration of 5 ug/ml.
Since the specific function of DC in vivo is stimulation of T cell responses, we sought to determine whether the siRNA/lipiodol mixture had effects on inhibition of mixed lymphocyte reaction (MLR).

IL-12 p70 = IL-12 p70 production by LPS/TNF-activated bone marrow derived DC after siRNA transfection (ELISA); type: cell-based, C57/BL6 mice; settings: day-7 bone marrow derived C57/BL6 DC; LPS/TNF activation day 8; supernatants day 10; FIG. 7
Protocol: At Day 0, bone marrow cells were flushed from the femurs and tibias of C57/BL6 mice, washed and cultured in 6-well plates (Corning, N.Y.) at 4×10^6 cells/well in 4 ml of complete medium (RPMI 1640 supplemented with 2 mM L-glutamine, 100 U/ml penicillin, 100 μg of streptomycin, 50 μM 2-ME, and 10% FCS (all from Life Technologies, Ontario, Canada) supplemented with recombinant GM-CSF (10 ng/ml; PeproTech, Rocky Hill, N.J.) and recombinant mouse IL-4 (10 ng/ml; PeproTech). All cultures were incubated at 37° C. in 5% humidified CO2. Non-adherent cells were removed after 48 h of culture (Day 2) and fresh medium was added. After 7 days of culture, >90% of the cells expressed the characteristic DC-specific marker CD11c as determined by FACS. DC were washed and plated in 24-well plates at a concentration of 2×10^5 cells/well in 400 μl of serum-free RPMI 1640. Transfection with GenePorter, lipiodol, or naked siRNA was performed as described below on day 7 of culture. […]
(§1) The supernatants from recall response T cell cultures or MLR were harvested and assessed for DC cytokines (IL-12p70, IL-10) and T cell cytokines (IFN-, IL-4) by ELISA. Cytokine-specific ELISA (Endogen, Rockford, Ill.) was used for detecting cytokine concentrations in culture supernatants according to the manufacturer's instructions using a Benchmark Microplate Reader (Bio-Rad, Hercules, Calif.). […]

IL-4 = experiment: KLH recall response supernatants, IL-4 ELISA; type: in vivo, C57BL/6 mice; settings: 14 days after immunization with siRNA/lipiodol, CFA and KLH, supernatants by ELISA, FIG. 14, FIG. 17
Protocol: (§2) C57/BL6 mice were immunized intradermally at the interior side of both hind legs with 100 μl of KLH or ovalbumin (1 μg/μl) emulsified in CFA (Difco Laboratories, Detroit, Mich.) in the presence or absence of 10 nMol siRNA and 10% lipiodol. After 14 days mice were sacrificed and T cells extracted as described above.
(§3) Proliferative recall responses to KLH and ovalbumin in immunized mice were assessed by sacrificing C57/BL6 mice 14 days after immunization with antigen-loaded DC. T cells were purified from suspensions of lymph nodes using CD4+ T cell column (R&D Systems) after washing in PBS. Purified T cells were cultured in 96 well plates with irradiated syngeneic splenocytes in triplicate and mixed with serial dilutions of KLH or OVA at concentrations ranging from 0-10 ug/ml. […] Using an automated cell harvester, the cells were collected onto glass microfiber filter, and the radioactive labeling incorporation was measured by a Wallac Betaplate liquid scintillation counter.
as §1

IFN-γ = experiment: KLH recall response supernatants, IFN-γ ELISA; type: in vivo, C57BL/6 mice; settings: 14 days after immunization with siRNA/lipiodol, CFA and KLH, supernatants by ELISA, FIG. 13, FIG. 16
Protocol: as §2, §3, §1

[2] = test system: CD4 T cells from draining lymph nodes; experiment: KLH proliferative recall response after immunization with siRNA/lipiodol, CFA and KLH; type: in vivo, C57BL/6 mice; settings: lipiodol/CFA composition with KLH, identical protocol to Example 10; FIG. 15
Protocol: as §2
Proliferative recall responses to KLH and ovalbumin in immunized mice were assessed by sacrificing C57/BL6 mice 14 days after immunization with antigen-loaded DC. T cells were purified from suspensions of lymph nodes using CD4+ T cell column (R&D Systems) after washing in PBS. Purified T cells were cultured in 96 well plates with irradiated syngeneic splenocytes in triplicate and mixed with serial dilutions of KLH or OVA at concentrations ranging from 0-10 ug/ml. Following a 72-h incubation, 1 μCi of [^3H]thymidine (Amersham) was added to each well for 16 h. Using an automated cell harvester, the cells were collected onto glass microfiber filter, and the radioactive labeling incorporation was measured by a Wallac Betaplate liquid scintillation counter.
Accordingly, we used the KLH recall response as an indicator. C57BL/6 mice were immunized with the IL-12 siRNA/lipiodol mixture combined with CFA and KLH. […]

splenic lymphocytes = experiment: Ovalbumin-specific proliferative recall response of splenic lymphocytes after intrahepatic immunization; type: in vivo, BALB/c mice; settings: intrahepatic (portal vein) ovalbumin immunization; boosted day 7 with ovalbumin/CFA; splenic lymphocytes 14 days after boost; FIG. 1
Source text: Four groups of BALB/c mice (The Jackson Laboratory, Bar Harbor, ME) of 6-8 weeks of age consisted of Group 1 intraperitoneal administration of ovalbumin, Group 2 intrahepatic administration of ovalbumin, Group 3 intrahepatic administration of ovalbumin together with lipiodol, and Group 4 intrahepatic administration of ovalbumin together with lipiodol and Poly (I:C).
Mice in Group 1(5 mice per group) where administered one hundred micrograms of ovalbumin (grade V; Sigma Aldrich) dissolved in 0.1 mL of 0.9% saline solution intraperitoneally. The following procedures were performed for mice receiving intrahepatic immunization: Mice were anesthetized with an intraperitoneal injection of ketamin at a concentration of 0.075 mg/g and medetomidine 0.005 mg/g (Sigma Aldrich, St Louis, Mo.). A midline abdominal incision was made, and the viscera were exposed. One hundred micrograms of ovalbumin was dissolved in 0.1 mL of 0.9% saline solution was injected into the portal vein with a 30-gauge needle for mice in Group 2. Mice in Group 3 received one hundred micrograms of ovalbumin dissolved in 0.1 mL of lipiodol (Guerbet, Roissy CdG Cedex, France). […] Cells were harvested onto glass fiber filters, and the radioactivity incorporated was quantitated using a Wallac Betaplate liquid scintillation counter. Results were expressed as the mean cpm of triplicate cultures±SEM. […]

[3] = listed as Lipiodol-siRNA targeting IL-10

siRNA specific for IL-12p35: siRNA specific for IL-12p35 (AACCUGCUGAAGACCACAGAU) (SEQ ID NO: 1), Dharmacon (listed as RNA, chemistry not given here)
proliferation of responding T cells / allostimulatory ability of DC in MLR [1]: inhibited proliferation | inhibition of IL-12 production (IL-12 p70): > 30%

siRNA targeting IL-10: siRNA specific for IL-10 (AATAAGCTCCAAGAGAAAGGC) (SEQ ID NO: 2), delivered in vivo in a lipiodol/CFA composition (lipiodol/CFA formulation, further chemistry not given here)
IL-4 production in KLH recall response (IL-4): reduced | IL-4 production in KLH recall response (IL-4; [3]): Decreased | IFN-γ production in KLH recall response (IFN-γ): enhanced | IFN-γ production in KLH recall response (IFN-γ; [3]): Increased | recall proliferative response to KLH [2]: increased

Poly (I:C)
proliferative recall response to ovalbumin ([3H]thymidine) (splenic lymphocytes): profound stimulation

mismatched siRNA: mismatched (mixed) control sequence (AACTGCCAGATGGATGGTGAC) (SEQ ID NO: 3) (listed as DNA, chemistry not given here) [reference compound]
proliferation of responding T cells / allostimulatory ability of DC in MLR [1]: not the mismatched (mixed) control inhibited proliferation | inhibition of IL-12 production (IL-12 p70): no inhibitory effect

Source: patent US20070269406A1, “Transcatheter tumor immunoembolization” (priority 2005, published 2007)
